Measured values: ChEMBL document CHEMBL1156230, “Identification of phenylsulfone-substituted quinoxaline (WYE-672) as a tissue selective liver X-receptor (LXR) agonist” (J Med Chem, 2010)
The source made the active and inactive calls. The rule behind the calls is not given here.

How the values were obtained:
Mus musculus [1] = test: Antiatherosclerotic activity against high fat/high cholesterol fed LDLR-deficient mouse assessed as Lipc gene regulation at 0.6 mg/kg administered with diet for 7 days by Experion chip analysis; format: functional, organism-based; design: dose 0.6 mg/kg
[2] = biological target: T1, Oxysterols receptor LXR-alpha (Homo sapiens, UniProt Q13133); test: Displacement of [3H]T0901317 from human LXRalpha ligand binding domain
T1 sequence (Q13133 whole entry): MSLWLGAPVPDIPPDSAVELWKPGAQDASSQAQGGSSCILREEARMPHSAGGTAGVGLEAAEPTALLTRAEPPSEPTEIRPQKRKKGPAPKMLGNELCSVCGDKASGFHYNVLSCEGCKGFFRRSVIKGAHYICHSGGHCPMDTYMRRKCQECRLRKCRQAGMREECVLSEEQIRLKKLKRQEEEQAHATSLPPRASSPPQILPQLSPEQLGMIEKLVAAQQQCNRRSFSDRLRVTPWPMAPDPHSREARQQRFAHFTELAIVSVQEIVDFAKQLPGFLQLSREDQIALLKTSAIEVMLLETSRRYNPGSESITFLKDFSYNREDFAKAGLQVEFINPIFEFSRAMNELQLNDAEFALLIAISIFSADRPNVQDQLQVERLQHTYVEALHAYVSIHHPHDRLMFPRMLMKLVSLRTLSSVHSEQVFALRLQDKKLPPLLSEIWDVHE

[3] = biological target: T2, Peroxisome proliferator-activated receptor gamma (Homo sapiens) (UniProt P37231); test: Binding affinity to PPARgamma
T2 sequence (whole entry): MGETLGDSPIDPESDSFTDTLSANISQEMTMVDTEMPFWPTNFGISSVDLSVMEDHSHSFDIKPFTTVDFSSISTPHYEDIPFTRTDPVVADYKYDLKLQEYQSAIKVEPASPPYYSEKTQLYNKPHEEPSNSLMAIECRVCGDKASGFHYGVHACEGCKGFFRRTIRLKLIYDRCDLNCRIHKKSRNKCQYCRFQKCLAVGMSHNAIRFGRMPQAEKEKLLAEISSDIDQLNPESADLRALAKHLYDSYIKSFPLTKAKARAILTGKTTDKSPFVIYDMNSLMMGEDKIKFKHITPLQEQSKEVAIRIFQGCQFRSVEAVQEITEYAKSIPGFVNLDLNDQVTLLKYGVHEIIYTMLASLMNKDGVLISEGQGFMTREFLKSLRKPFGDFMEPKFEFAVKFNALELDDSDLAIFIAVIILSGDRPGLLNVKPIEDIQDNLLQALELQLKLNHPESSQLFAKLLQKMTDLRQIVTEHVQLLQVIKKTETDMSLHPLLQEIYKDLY

[4] = AUC (0 to infinity) in C57 mouse at 10 mg/kg, po; format: ADME, organism-based; design: time infinity, dose 10 mg/kg, route oral; details: plasma
Mus musculus [5] = test: Antiatherosclerotic activity against high fat/high cholesterol fed LDLR-deficient mouse assessed as reduction in aortic arch lesion burden at 0.6 mg/kg/day administered with diet relative to control; format: functional, Pharyngeal arch artery; design: scale not given: the % may be the effect or the level left
[6] = biological target: T3, Mineralocorticoid receptor (Homo sapiens) (UniProt P08235); test: Binding affinity to mineralocorticoid receptor
T3 sequence (whole entry): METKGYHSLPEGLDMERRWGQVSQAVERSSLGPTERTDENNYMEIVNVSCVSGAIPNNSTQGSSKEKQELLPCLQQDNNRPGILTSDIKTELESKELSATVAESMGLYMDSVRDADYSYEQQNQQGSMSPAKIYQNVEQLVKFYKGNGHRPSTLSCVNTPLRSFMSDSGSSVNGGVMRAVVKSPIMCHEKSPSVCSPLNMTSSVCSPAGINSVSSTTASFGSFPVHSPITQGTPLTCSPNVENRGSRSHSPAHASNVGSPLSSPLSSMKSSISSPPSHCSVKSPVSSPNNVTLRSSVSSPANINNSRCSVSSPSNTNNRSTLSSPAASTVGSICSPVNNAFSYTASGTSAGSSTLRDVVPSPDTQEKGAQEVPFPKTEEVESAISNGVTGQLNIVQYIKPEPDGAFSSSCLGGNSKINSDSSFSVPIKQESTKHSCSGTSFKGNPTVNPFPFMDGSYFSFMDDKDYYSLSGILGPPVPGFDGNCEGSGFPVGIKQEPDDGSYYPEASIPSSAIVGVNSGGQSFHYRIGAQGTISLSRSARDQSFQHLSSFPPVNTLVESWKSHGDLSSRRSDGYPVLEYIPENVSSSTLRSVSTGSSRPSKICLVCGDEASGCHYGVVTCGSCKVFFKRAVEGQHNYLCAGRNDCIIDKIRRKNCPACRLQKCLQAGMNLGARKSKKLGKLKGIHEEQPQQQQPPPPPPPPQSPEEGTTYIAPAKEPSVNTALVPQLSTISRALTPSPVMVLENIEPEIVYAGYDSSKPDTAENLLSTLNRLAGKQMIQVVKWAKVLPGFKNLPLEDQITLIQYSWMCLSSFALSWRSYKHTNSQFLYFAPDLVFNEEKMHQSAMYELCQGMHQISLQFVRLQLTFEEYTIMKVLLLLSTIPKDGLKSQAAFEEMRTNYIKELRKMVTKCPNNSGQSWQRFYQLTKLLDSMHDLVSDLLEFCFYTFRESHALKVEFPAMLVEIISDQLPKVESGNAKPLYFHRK

[7] = biological target: T4, Estrogen receptor (Homo sapiens) (UniProt P03372); test: Binding affinity to estrogen receptor
T4 sequence (whole entry): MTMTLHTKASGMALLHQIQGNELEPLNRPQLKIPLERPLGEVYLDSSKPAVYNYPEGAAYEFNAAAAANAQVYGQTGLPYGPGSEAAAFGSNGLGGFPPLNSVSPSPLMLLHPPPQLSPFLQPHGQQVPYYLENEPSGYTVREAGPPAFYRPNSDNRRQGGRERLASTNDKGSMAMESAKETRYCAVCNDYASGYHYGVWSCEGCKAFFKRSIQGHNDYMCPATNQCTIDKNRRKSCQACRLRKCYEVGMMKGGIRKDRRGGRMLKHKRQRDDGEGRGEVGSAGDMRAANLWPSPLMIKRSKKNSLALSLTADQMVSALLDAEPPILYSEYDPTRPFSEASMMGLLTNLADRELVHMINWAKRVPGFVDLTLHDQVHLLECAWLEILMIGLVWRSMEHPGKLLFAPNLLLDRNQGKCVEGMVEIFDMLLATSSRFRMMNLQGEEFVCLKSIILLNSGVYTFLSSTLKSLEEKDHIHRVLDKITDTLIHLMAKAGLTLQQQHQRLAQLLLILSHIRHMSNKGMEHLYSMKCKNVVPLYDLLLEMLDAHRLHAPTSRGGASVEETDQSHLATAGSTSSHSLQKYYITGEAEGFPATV

[8] = biological target: T5, Oxysterols receptor LXR-alpha (Homo sapiens, UniProt Q13133)
[9] = Cmax in C57 mouse at 10 mg/kg, po; format: ADME, organism-based; design: dose 10 mg/kg, route oral; details: in vivo
[10] = biological target: Oxysterols receptor LXR-beta (Homo sapiens, UniProt P55055); test: Displacement of [3H]T0901317 from human LXRbeta ligand binding domain
THP-1 = test: Induction of [3H]cholesterol efflux in human THP1 cells assessed as lipid accumulation; format: functional, cell-based
[11] = biological target: T5, Oxysterols receptor LXR-alpha; remark: listed apart in the source

Oxysterols receptor LXR-beta, sequence (P55055 whole entry, the tested form may be a part): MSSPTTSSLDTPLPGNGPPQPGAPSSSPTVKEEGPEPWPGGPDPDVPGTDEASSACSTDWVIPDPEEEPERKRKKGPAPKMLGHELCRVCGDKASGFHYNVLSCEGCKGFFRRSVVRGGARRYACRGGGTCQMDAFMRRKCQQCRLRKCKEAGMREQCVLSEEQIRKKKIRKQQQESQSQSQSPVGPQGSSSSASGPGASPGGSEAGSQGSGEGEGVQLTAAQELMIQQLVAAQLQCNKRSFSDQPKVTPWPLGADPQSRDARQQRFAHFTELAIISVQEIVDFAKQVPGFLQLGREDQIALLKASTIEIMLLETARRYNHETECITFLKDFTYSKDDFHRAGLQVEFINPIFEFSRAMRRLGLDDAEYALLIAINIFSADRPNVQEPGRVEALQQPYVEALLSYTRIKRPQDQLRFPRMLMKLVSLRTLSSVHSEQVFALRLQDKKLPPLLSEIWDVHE

Row | SMILES | Activity (Mus musculus [1]) | IC50 [2] [nM] | Activity [3] | AUC(0-inf) [4] [ng·h/mL] | Activity (Mus musculus [5]) [%] | Activity [6] | Activity [7] | EC50 [8] [nM] | Cmax [9] [ng/mL] | IC50 [10] [nM] | EC50 (THP-1) [nM] | EC50 [11] [nM]
1 | O=C(O)Cc1cccc(OCCCN(Cc2cccc(C(F)(F)F)c2Cl)CC(c2ccccc2)c2ccccc2)c1 | Active |  |  |  |  |  |  |  |  |  |  | 
2 | Cc1nc2c(C(F)(F)F)cccc2nc1-c1ccc(-c2cccc(S(C)(=O)=O)c2)cc1 |  | > 1000 | inactive | 2440 | 20 | inactive | inactive | 1700 | 229 | 53 | 72 | > 1000
